From US20110098180A1, “Herbicide-Resistant Plants, And Polynucleotides And Methods For Providing Same” (United States Department of Agriculture, priority 2002, published 2011)

Assays:
[1] = target: Hydrilla PDS Arg^304 → Threonine (Hydrilla verticillata, UniProt Q66PY0, R304T); test: Cross resistance to bleaching herbicides, in vitro PDS inhibition, non-His-tagged (Table 2); assay type: biochemical; conditions: Threonine at 304; construct in frame with LacZalpha-ccdB, non-His-tagged; read-out: I50
Protocol: (§1) The expression constructs in Table 2 were derived from an original clone of the susceptible PDS gene from Hydrilla and then the Arg^304 was mutated to the listed amino acid. Expression was under the control of the lac promoter but in frame with the initiation codon of the LacZalpha-ccdB gene in the pCR4-TOPO vector (Invitrogen Inc., CA, Cat. #K4575-01).
(§2) All mutagenesis was performed, unless stated otherwise, using the TOPO-vector containing the wildtype (H4) PDS-sequence, which was extracted from an overnight culture with the Qiagen Plasmid Prep Kit as described above. The amount of the extracted plasmid was diluted to 10 ng/μl and used as template in a mutagenesis-procedure using the QuikChange Site-directed Mutagenesis Kit (Stratagene, Calif., #200518). The design of the mutagenesis-primers was conducted according to the manufacturers protocol to enable the specific change of Arg^304-codon to code for the desired amino acid. Primers (purchased from MWG-Biotech) and their introduced amino acid change are listed below with the changed codon underlined:
(§3) The reactions were performed according to the manufacturers protocol. Reactions were set up in MicroAmp-tubes on ice with 38 μl ddH2O, 5 μl 10× reaction buffer, 2 μl plasmid (10 ng/μl), 1.25 μl forward-mutagenesis primer (100 ng/μl), 1.25 μl of reverse mutagenesis primer (100 ng/μl), 1 μl dNTP-mix and 1 μl PfuTurboDNA polymerase (2.5 U/μl). The reactions were placed in a PE 9700 thermal cycler and heated to 95° C. for 30 sec followed by 12 rounds at 95° C. for 30 sec, 55° C. for 1 min and 68° C. for 12 min. The PCR was followed by a DpnI-digestion and transformation in XL1-Blue supercompetent cells as described in the manual. 4-6 resulting colonies were grown overnight in LB-medium with kanamycin and plasmid DNA was isolated as described above. The plasmid was used as template for sequencing with M13 and internal PDS-primers as described above on a LiCOR-system. Sequences were assembled and analyzed using Seqman. Introduced mutations were identified and plasmids carrying the desired mutation(s) were transferred into competent TOP10-cells, using the transformation protocol from the TOPO TA Cloning Kit. Resulting colonies were grown overnight in Wu-broth with kanamycin, aliquoted and stored at −80° C. until further use. 1 ml of Wu-cultures was used to start 1-L LB-cultures with kanamycin as described before, to express active PDS-enzyme for testing as described.
(§4) Phytoene desaturase activity and its inhibition by herbicides was determined using an in vitro system using components derived from the in vivo production of phytoene and phytoene desaturase proteins. All mutations described in Examples 3 and 4 were tested. […] The clones were used for the heterologous expression of Hydrilla-PDS-enzyme. In particular, bacterial cultures were grown from single colonies overnight in Wu-broth (6.27 g/L K2HPO4, 1.8 g/L KH2PO4, 0.5 g/L Na-citrate, 0.9 g/L (NH4)2SO4, 10 g/L tryptone, 5 g/L yeast extract, 10 g/L NaCl, 44 ml/L glycerol, 0.1 mM MgSO4, pH 7.2) with kanamycin. 1-mL was aliquoted in centrifuge tube and stored at −80° C. For expression, 1 L LB-medium with kanamycin was inoculated with 1-mL Wu-culture and grown for 24 h at 37° C. to stationary phase with shaking at 200 rpm. The cells were collected by centrifugation at 2000×g. All of the following steps were done at 4° C. unless otherwise noted. Active soluble PDS enzyme was extracted by lysing the transformed E. coli cells using a French Press at 20,000 psi in assay buffer consisting of 100 mM Tris-HCl, pH 7.2, 10 mM magnesium-chloride, 0.1 mM NADP, 0.1 mM FAD, 10 mM cysteine, 5 mM DTT, 1 mM aminocaproic acid, and 1 μg/ml leupeptin. The soluble fraction containing PDS activity was obtained by centrifugation for 10 min at 1200×g. After 24 h they were centrifuged down and used in PDS enzyme activity assays as described below.

[2] = test system: Hydrilla PDS Arg^304 → Threonine; test: as above; assay type: biochemical, Hydrilla verticillata; conditions: Threonine at 304 relative to Arginine; Table 2
Protocol: as §1, §2, §3, §4

Chain of Hydrilla PDS Arg^304 → Threonine (Hydrilla verticillata, UniProt Q66PY0, R304T) (Q66PY0 1-580 R304T): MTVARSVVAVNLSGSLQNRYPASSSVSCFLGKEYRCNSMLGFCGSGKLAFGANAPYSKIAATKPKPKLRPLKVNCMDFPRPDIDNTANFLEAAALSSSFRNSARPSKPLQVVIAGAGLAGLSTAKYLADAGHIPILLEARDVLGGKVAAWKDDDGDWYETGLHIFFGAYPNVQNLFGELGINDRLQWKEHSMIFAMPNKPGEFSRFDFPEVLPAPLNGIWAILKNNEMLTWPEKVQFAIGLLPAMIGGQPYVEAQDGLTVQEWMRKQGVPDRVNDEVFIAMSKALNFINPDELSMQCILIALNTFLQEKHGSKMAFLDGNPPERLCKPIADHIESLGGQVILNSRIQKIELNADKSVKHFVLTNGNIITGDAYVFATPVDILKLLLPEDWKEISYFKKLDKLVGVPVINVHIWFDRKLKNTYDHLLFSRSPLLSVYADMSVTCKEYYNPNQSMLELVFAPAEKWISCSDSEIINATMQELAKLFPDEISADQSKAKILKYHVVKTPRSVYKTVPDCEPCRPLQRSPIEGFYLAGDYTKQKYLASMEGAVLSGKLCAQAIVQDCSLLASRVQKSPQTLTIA

Row | Compound | IC50 [1] [µM] | R/S [2]
1 | CCC(Oc1ccc(F)c(C(F)(F)F)c1)C(=O)NCc1ccccc1 (stereo not shown) [Beflubutamid] | 1.2 | 0.3
2 | O=C(Nc1ccc(F)cc1F)c1cccnc1Oc1cccc(C(F)(F)F)c1 [Diflufenican] | 1 | 0.2
3 | O=C1C(Cl)C(CCl)CN1c1cccc(C(F)(F)F)c1 (stereo not shown) [Fluorochloridone] | 52 | 4.3
4 | CNC1=C(c2cccc(C(F)(F)F)c2)C(=O)C(c2ccccc2)O1 (stereo not shown) [Flurtamone] | 8.1 | 2.9
5 | CNc1cnn(-c2cccc(C(F)(F)F)c2)c(=O)c1Cl [Norflurazon] | 161 | 52.0
6 | O=C(Nc1ccc(F)cc1)c1cccc(Oc2cccc(C(F)(F)F)c2)n1 [Piconilafen, Picolinafen] | 2.7 | 0.5
7 | Fluridone |  | 10.0
